Measured values from patent US20200278355A1, “CONJUGATED PROTEINS AND USES THEREOF” (THE SCRIPPS RESEARCH INSTITUTE, priority 2017, published 2020).

Legend:
C274 of NR0B1 = molecular target: T1, C274 of NR0B1 (Homo sapiens, UniProt P51843); experiment: Site of labeling by LC-MS/MS of FLAG-NR0B1 tryptic peptides; type: binding; details: BPK-26 100 μM, 3 h in lysate, BPK-29 50 μM, 3 h in HEK293T cells
T1 construct: expressed in transfected cells; host or cells: HEK-293T, transient, pRK5-based vector
Protocol: FIG. 11A-FIG. 11F illustrate a covalent ligand targeting Cys274 disrupts NR0B1 protein complexes. […] See also FIG. 5C. […] Top: Structures of screening hit BPK-28 and synthesized derivatives. […] The In vitro-binding assay was performed as described in FIG. 5B using compounds at a concentration of 50 μM. Bottom: Data represent mean values±SD normalized to DMSO control. n=4/group. […] Top: Compounds were tested as described in FIG. 5B. Bottom: Graph of concentration-dependent inhibition of NR0B1-SNW1 interactions by the indicated compounds. Percent binding was normalized to vehicle (DMSO). Data represent mean values±SD (n=2-5/group). FIG. 11D and FIG. 11E show NR0B1 ligands BPK-26 (D) and BPK-29 (E) covalently modify C274 in NR0B1. Lysate generate from HEK293T cell expressing FLAG-NR0B1 was treated with DMSO or BPK-26 (100 μM, 3 h, D). […] FLAG-immunoprecipitates were prepared from each lysate and subjected to proteolytic digestion, whereupon tryptic peptides harboring C274 were analyzed by LC-MS/MS. […] Immunoprecipitates were analyzed by in-gel fluorescence-scanning to assess BPK-29yne labeling or by immunoblot for FLAG-NR0B1. […] In a modified in vitro binding assay shown in FIG. 5B, HEK293T cells expressing HA-NR0B1-WT or an HA-NR0B1-C274V mutant were treated with DMSO or BPK-26 (20 μM, 3 h), after which lysates were and interaction with FLAG-SNW1 assessed. […]

[1] = molecular target: T2, interactions of FLAG-tagged RBM45 or SNW1 with endogenous NR0B1 (Homo sapiens, UniProt P51843); experiment: NR0B1 protein interactions in compound-treated cells (FLAG immunoprecipitation, immunoblot); type: cell-based; details: for blockade of interactions of FLAG-tagged RBM45 or SNW1 with endogenous NR0B1: KEAP1-null HEK293T cells and KEAP1-mutant NSCLC cells; for blockade of interactions of FLAG-tagged RBM45 or SNW1 with endogenous NR0B1 / inhibition of NR0B1 interaction with FLAG-RBM45 or FLAG-SNW1: 3 h; for inhibition of NR0B1 interaction with FLAG-RBM45 or FLAG-SNW1: KEAP1-null HEK293T cells
T2 construct: endogenous in cells; host or cells: KEAP1-null HEK293T cells stably expressing FLAG-RBM45 or FLAG-SNW1
T2 sequence (P51843 1-470): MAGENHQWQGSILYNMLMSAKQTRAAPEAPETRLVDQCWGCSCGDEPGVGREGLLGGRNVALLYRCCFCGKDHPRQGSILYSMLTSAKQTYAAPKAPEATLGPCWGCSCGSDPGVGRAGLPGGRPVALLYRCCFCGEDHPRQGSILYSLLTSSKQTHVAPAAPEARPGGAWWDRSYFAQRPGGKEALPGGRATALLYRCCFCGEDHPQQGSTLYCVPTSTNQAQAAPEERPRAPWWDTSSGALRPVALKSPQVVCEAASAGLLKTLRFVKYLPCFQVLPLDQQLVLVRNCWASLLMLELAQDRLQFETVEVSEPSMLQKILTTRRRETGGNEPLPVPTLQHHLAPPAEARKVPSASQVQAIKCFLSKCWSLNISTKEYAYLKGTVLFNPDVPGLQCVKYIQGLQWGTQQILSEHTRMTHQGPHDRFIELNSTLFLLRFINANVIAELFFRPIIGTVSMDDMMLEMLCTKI
Protocol: Confluent 10 cm plates of indicated cell lines were rinsed once with warm PBS and incubated in serum/dye-free RPMI with indicated compounds or vehicle for 3 h at 37° C. Cells were washed once ice-cold PBS and snap frozen.
Cells were rinsed once with ice-cold PBS, and lysed by sonication in Triton IP buffer. Lysates were clarified by centrifugation at 16,000×g for 10 min. Samples were normalized to 1 mg ml^−1 and boiled following the addition of sample buffer. For FLAG- or HA-immunoprecipitations, FLAG or HA resins (30 μL, 50:50 slurry) were added to the pre-cleared lysates and incubated with rotation for 3 hours at 4° C. Following immunoprecipitation, the beads were washed once with IP buffer followed by 3 times with IP buffer containing 500 mM NaCl. Loading buffer (40 μL) was added to the immunoprecipitated proteins which were subsequently denatured by boiling. Proteins were resolved by SDS-PAGE, analyzed by immunoblotting and relative band intensities were quantified using ImageJ software.
Next it was asked whether BPK-26 and BPK-29 inhibited NR0B1 protein interactions in cells using two complementary systems. […] In both cell systems, BPK-26 and BPK-29, but not control compounds, blocked the interactions of FLAG-tagged RMB45 or SNW1 with endogenous NR0B1 (FIG. 6C and FIG. 12E-F).

SMILES | covalent modification of C274 of NR0B1 (C274 of NR0B1) | blockade of interactions of FLAG-tagged RBM45 or SNW1 with endogenous NR0B1 [1] | inhibition of NR0B1 interaction with FLAG-RBM45 or FLAG-SNW1 [1] | relative potency for blockade of NR0B1-protein interactions ([1]; in cells)
O=C(CCl)N(Cc1cccc(Cl)c1F)c1ccc(Cl)nc1 [BPK-26, 2-chloro-N-(3-chloro-2-fluorobenzyl)-N-(6-chloropyridin-3-yl)acetamide] | covalently modified C274 of NR0B1 | blocked | inhibit | –
O=C(c1ccc(N2CCOCC2)cc1)N1CCCC(N(Cc2ccccc2)C(=O)CCl)CC1 (stereo not shown) [BPK-29, N-benzyl-2-chloro-N-(1-(4-morpholinobenzoyl)azepan-4-yl)acetamide] | covalently modified C274 of NR0B1 | blocked | inhibit | better potency than BPK-26
